# Where two headings read alike, the source gives them in different places.
# Experiments:
# [1] = Compound B pharmacokinetics after oral administration of a single dose alone (fasting) and with ritonavir (fed), human subjects; assay type: in vivo; conditions: for half-life / Cmax / AUC / Tmax: plasma; for half-life / Ae % (drug recovered unchanged in urine, percent of administered dose): arithmetic mean; for half-life: read-out: t1/2 (terminal phase plasma half-life) (converted); for AUC: read-out: AUC (area under the concentration-time curve from time 0 to infinity); for Tmax: median
# Protocol: Nos. 11/008325, filed Dec. 8, 2004, and 60/591,351, filed Jul. 26, 2004, all of which are hereby incorporated by reference for this purpose. A total of 21 human subjects were administered a single 300 mg, 900 mg, 1800 mg, or 3600 mg dose of a spray-dried composition comprising 90 wt % amorphous Compound B and 10 wt % hydroxypropyl methyl cellulose acetate succinate (HPMCAS) under fasting conditions. […] Each plasma sample was analyzed for the presence of Compound B and the following pharmacokinetic parameters for Compound B were determined for each subject: area under the concentration-time curve from time 0 extrapolated to infinity (AUC), maximum observed plasma concentration (Cmax), time to first occurrence of Cmax (Tmax), terminal phase plasma half-life (t %), CL/F=apparent oral clearance, and cumulative amount of drug recovered unchanged in the urine expressed as a percentage of administered dose (Ae %).
# [2] = as above; assay type: in vivo; conditions: geometric mean
# [3] = po, 300 mg, single oral dose 300 mg (active dose 270 mg), alone, fasting
# [4] = po, 300 mg, single oral dose 300 mg (active dose 270 mg), alone, fasting, geometric mean
# [5] = po, 900 mg, single oral dose 900 mg (active dose 810 mg), alone, fasting
# [6] = po, 900 mg, single oral dose 900 mg (active dose 810 mg), alone, fasting, geometric mean
# [7] = po, 1800 mg, single oral dose 1800 mg (active dose 1620 mg), alone, fasting
# [8] = po, 1800 mg, single oral dose 1800 mg (active dose 1620 mg), alone, fasting, geometric mean
# [9] = po, 3600 mg, single oral dose 3600 mg (active dose 3240 mg), alone, fasting
# [10] = po, 3600 mg, single oral dose 3600 mg (active dose 3240 mg), alone, fasting, geometric mean
# [11] = po, single oral dose 300 mg (active 270 mg) + ritonavir (100 mg every 12 hours for 3 doses), fed
# [12] = po, single oral dose 450 mg (active 405 mg) + ritonavir (100 mg every 12 hours for 3 doses), fed
smiles,measurement,setting,value
"Cc1c(O)cccc1C(=O)N[C@@H](Cc1ccccc1)[C@H](O)C(=O)N1CC(F)(F)C(C)(C)[C@H]1C(=O)NCC(F)(F)F [Compound B, 4,4-difluoro-1-{(2S,3S)-2-hydroxy-3-[(3-hydroxy-2-methylbenzoyl)amino]-4-phenylbutanoyl}-3,3-dimethyl-N-(2,2,2-trifluoroethyl)-L-prolinamide]",half-life,[1]; [3],2.76 h
same,Cmax,[1]; [4],1530 ng/mL
same,AUC,[1]; [4],6110 ng·h/mL
same,Tmax,[1]; [3],0.5 h
same,half-life,[1]; [5],3.25 h
same,Cmax,[1]; [6],4610 ng/mL
same,AUC,[1]; [6],28200 ng·h/mL
same,Tmax,[1]; [5],2 h
same,half-life,[1]; [7],3.6 h
same,Cmax,[1]; [8],8670 ng/mL
same,AUC,[1]; [8],74500 ng·h/mL
same,Tmax,[1]; [7],3.02 h
same,half-life,[1]; [9],4.15 h
same,Cmax,[1]; [10],14500 ng/mL
same,AUC,[1]; [10],164000 ng·h/mL
same,Tmax,[1]; [9],4 h
same,half-life,[1]; [11],8.54 h
same,Tmax,[1]; [11],4 h
same,half-life,[1]; [12],10.3 h
same,Cmax,"[1]; po, single oral dose 450 mg (active 405 mg) + ritonavir (100 mg every 12 hours for 3 doses), fed, geometric mean",3830 ng/mL
same,Tmax,[1]; [12],4.02 h
same,AUC,"[1]; single oral dose 300 mg (active 270 mg) + ritonavir (100 mg every 12 hours for 3 doses), fed, geometric mean",34800 ng·h/mL
same,"Ae % (drug recovered unchanged in urine, percent of administered dose)","[1]; single oral dose 300 mg (active 270 mg) + ritonavir (100 mg every 12 hours for 3 doses), fed",17.7%
same,"Ae % (drug recovered unchanged in urine, percent of administered dose)","[1]; single oral dose 300 mg (active dose 270 mg), alone, fasting",3.67%
same,CL/F (apparent oral clearance),"[1]; single oral dose 300 mg (active dose 270 mg), alone, fasting, geometric mean",44.2 L/h
same,"Ae % (drug recovered unchanged in urine, percent of administered dose)","[1]; single oral dose 450 mg (active 405 mg) + ritonavir (100 mg every 12 hours for 3 doses), fed",17.6%
same,AUC (area under the concentration-time curve from time 0 to infinity),"[1]; single oral dose 450 mg (active 405 mg) + ritonavir (100 mg every 12 hours for 3 doses), fed, geometric mean",51600 ng·h/mL
same,"Ae % (drug recovered unchanged in urine, percent of administered dose)","[1]; single oral dose 900 mg (active dose 810 mg), alone, fasting",4.89%
same,CL/F (apparent oral clearance),"[1]; single oral dose 900 mg (active dose 810 mg), alone, fasting, geometric mean",28.7 L/h
same,"Ae % (drug recovered unchanged in urine, percent of administered dose)","[1]; single oral dose 1800 mg (active dose 1620 mg), alone, fasting",10.4%
same,CL/F (apparent oral clearance),"[1]; single oral dose 1800 mg (active dose 1620 mg), alone, fasting, geometric mean",21.7 L/h
same,"Ae % (drug recovered unchanged in urine, percent of administered dose)","[1]; single oral dose 3600 mg (active dose 3240 mg), alone, fasting",11.8%
same,CL/F (apparent oral clearance),"[1]; single oral dose 3600 mg (active dose 3240 mg), alone, fasting, geometric mean",19.7 L/h
same,Cmax,"[2]; plasma, po, single oral dose 300 mg (active 270 mg) + ritonavir (100 mg every 12 hours for 3 doses)",3100 ng/mL
same,CL/F (apparent oral clearance),[2]; single oral dose 300 mg (active 270 mg) + ritonavir (100 mg every 12 hours for 3 doses),7.75 L/h
same,CL/F (apparent oral clearance),[2]; single oral dose 450 mg (active 405 mg) + ritonavir (100 mg every 12 hours for 3 doses),7.84 L/h

# Reference: patent US20050171037A1, “Therapeutic combinations” (Agouron Pharmaceuticals, Inc., priority 2004, published 2005)
